Type in all cases: cell-based
The target in assay [1] is T1, human prostanoid TP receptor (Homo sapiens, UniProt P21731).
T1 construct: expressed in transfected cells
T1 sequence (P21731 1-343): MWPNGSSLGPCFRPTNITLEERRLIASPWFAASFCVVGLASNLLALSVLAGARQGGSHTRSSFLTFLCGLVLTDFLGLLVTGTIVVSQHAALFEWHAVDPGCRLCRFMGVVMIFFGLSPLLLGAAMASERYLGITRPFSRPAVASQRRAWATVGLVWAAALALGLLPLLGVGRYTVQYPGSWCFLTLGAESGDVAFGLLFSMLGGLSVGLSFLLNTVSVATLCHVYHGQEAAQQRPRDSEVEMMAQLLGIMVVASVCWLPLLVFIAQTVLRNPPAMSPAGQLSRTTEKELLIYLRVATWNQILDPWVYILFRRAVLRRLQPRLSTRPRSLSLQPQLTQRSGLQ
Description: FLIPR Ca2+ signaling antagonist assay, TP receptor stable cell line. The following applies: HEK-293 EBNA stable cells, standard agonist U-46619; NA = inactive (no antagonism or Kb≧10,000 nM). How it is done:
(§1) The above compounds were tested for PG antagonist activity as follows using human recombinant prostanoid receptor (DP1, EP1-4, FP, IP and TP) stable cell lines:
(§2) In order to measure the response of Gs and Gi coupled prostanoid receptors as a Ca^2+ signal, chimeric G protein cDNAs were used. Stable cell lines over-expressing human prostanoid DP1, EP1-4, FP, IP, and TP receptors were established as follows:
(§3) Briefly, human prostanoid DP1, EP2, and EP4 receptor cDNAs were co-transfected with chimeric Gqs cDNA containing a haemagglutanin (HA) epitope; human prostanoid EP3 receptors were co-transfected with chimeric Gqi-HA; human EP1, FP, IP, and TP receptor cDNAs were expressed with no exogenous G-proteins. Gqs and Gqi chimeric cDNAs (Molecular Devices, Sunnyvale, Calif., U.S.A.), as well as cDNAs of prostanoid receptors, were cloned into a pCEP4 vector with a hygromycin B selection marker. Transfection into HEK-293 EBNA (Epstein-Barr virus nuclear antigen) cells was achieved by the FuGENE 6 transfection Reagent (Roche Applied Science, Indianapolis, Ind., USA). Stable transfectants were selected according to hygromycin resistance. Because Gqs and Gqi contained an HA epitope, G-protein expression was detected by Western blotting analysis using anti-mouse HA monoclonal antibody and horseradish peroxidase (HRP)-conjugated secondary antibody, while functional expression of prostanoid receptors was detected by FLIPR screening (Matias et al., 2004). These stable cell lines were validated using previously published antagonists at 10 μM against serial dilutions of standard agonists by FLIPR functional assays for Ca^2+ Signaling (as described below).
(§4) Ca^2+ signaling studies were performed using a FLIPR TETRA system (Molecular Devices, Sunnyvale, Calif., USA) in the 384-format. This is a high-throughput instrument for cell-based assays to monitor Ca^2+ signaling associated with GPCRs and ion channels. Cells were seeded at a density of 5×10^4 cells/well in BioCoat poly-D-lysine coated, black wall, clear bottom 384-well plates (BD Biosciences, Franklin lakes, NJ, USA) and allowed to attach overnight in an incubator at 37° C. The cells were then washed twice with HBSS-HEPES buffer (Hanks' balanced salt solution without bicarbonate and phenol red, 20 mM HEPES, pH 7.4) using an ELx405 Select CW Microplate Washer (BioTek, Winooski, Vt., USA). After 60 min of dye-loading in the dark using the Ca^2+-sensitive dye Fluo-4AM (Invitrogen, Carlsbad, Calif., USA), at a final concentration of 2×10^−6M, the plates were washed 4 times with HBSS-HEPES buffer to remove excess dye and leaving 50 μl of buffer in each well. The plates were then placed in the FLIPR TETRA instrument and allowed to equilibrate at 37° C. AGN-211377 was added in a 25 μl volume to each well to give final concentrations of 0.1 μM, 0.3 μM, 1 μM, 3 μM, 10 μM, and 30 μM; or 0.067 μM, 0.1 μM, 0.2 μM, 0.3 μM, 0.67 μM, and 1 μM for cells over-expressing TP receptors. After 4.5 minutes, a 7-point serial dilution of the standard agonist for the corresponding receptor, in a 25 μl volume was injected at the final concentrations from 10^−11M to 10^−5M in 10-fold serial dilution increments for cells expressing human recombinant DP1, EP1, EP2, EP3, EP4, FP, and IP receptors. The dose range for the standard agonist for human recombinant TP receptors was from 10^−12M to 10^−6M. HBSS-HEPES buffer was used as the negative control for the standard agonists. Cells were excited with LED (light emitting diode) excitation at 470-495 nm and emission was measured through an emission filter at 515-575 nm. Assay plates were read for 3.5 minutes using the FLIPR^TETRA. The peak increase in fluorescence intensity was recorded for each well. On each plate, negative controls, dose response of positive controls, and co-treatments of antagonist-agonist for each dose were in triplicates. Standard agonists were as follows: DP=BW 245C, EP1-EP4=PGE2, FP=17-phenyl-PGF2α, IP=Cicaprost, and TP=U-46619. […]

Assay [2] has as its target T2, human prostanoid EP2 receptor (Homo sapiens, UniProt P43116).
T2 construct: expressed in transfected cells
Description: FLIPR Ca2+ signaling antagonist assay, EP2 receptor stable cell line. Particulars: HEK-293 EBNA stable cells with chimeric Gqs, standard agonist PGE2; NA = inactive (no antagonism or Kb≧10,000 nM). How it is done: as §1, §2, §3, §4

Assay [3] has as its target T3, human prostanoid DP1 receptor (Homo sapiens, UniProt Q13258).
T3 construct: expressed in transfected cells
T3 sequence (Q13258 1-359): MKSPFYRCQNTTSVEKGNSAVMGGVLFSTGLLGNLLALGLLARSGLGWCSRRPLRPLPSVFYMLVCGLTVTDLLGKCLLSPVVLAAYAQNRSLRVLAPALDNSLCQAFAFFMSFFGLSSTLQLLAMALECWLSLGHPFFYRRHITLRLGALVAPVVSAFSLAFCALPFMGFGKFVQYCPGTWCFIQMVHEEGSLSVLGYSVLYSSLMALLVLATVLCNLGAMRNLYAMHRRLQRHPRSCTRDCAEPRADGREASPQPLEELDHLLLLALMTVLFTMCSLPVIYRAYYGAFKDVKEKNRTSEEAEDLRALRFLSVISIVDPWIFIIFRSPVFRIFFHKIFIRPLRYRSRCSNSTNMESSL
The assay is described as follows: FLIPR Ca2+ signaling antagonist assay, DP1 receptor stable cell line. Particulars: HEK-293 EBNA stable cells with chimeric Gqs, standard agonist BW 245C; NA = inactive (no antagonism or Kb≧10,000 nM). How it is done: as §1, §2, §3, §4

For assay [4], the target named is T4, human prostanoid FP receptor (Homo sapiens, UniProt P43088).
T4 construct: expressed in transfected cells
T4 sequence (P43088 whole entry): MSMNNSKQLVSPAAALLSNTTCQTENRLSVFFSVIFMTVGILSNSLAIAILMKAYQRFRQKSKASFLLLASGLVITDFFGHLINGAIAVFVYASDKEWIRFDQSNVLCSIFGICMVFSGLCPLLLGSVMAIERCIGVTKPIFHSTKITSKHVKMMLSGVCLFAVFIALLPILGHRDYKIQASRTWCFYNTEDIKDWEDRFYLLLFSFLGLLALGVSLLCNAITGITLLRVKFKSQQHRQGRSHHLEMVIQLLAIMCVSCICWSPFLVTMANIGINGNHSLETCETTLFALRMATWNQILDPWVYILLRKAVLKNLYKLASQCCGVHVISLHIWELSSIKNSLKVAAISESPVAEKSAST
The assay is described as follows: FLIPR Ca2+ signaling antagonist assay, FP receptor stable cell line. The following applies: HEK-293 EBNA stable cells, standard agonist 17-phenyl-PGF2α; NA = inactive (no antagonism or Kb≧10,000 nM). How it is done: as §1, §2, §3, §4

Assay [5] addresses T5, human prostanoid EP4 receptor (Homo sapiens, UniProt P35408).
T5 construct: expressed in transfected cells
The assay is described as follows: FLIPR Ca2+ signaling antagonist assay, EP4 receptor stable cell line. Particulars: HEK-293 EBNA stable cells with chimeric Gqs, standard agonist PGE2; NA = inactive (no antagonism or Kb≧10,000 nM). How it is done:
as §1, §2, §3, §4

The target of assay [6] is T6, human prostanoid IP receptor (Homo sapiens, UniProt P43119).
T6 construct: expressed in transfected cells
T6 sequence (P43119 whole entry): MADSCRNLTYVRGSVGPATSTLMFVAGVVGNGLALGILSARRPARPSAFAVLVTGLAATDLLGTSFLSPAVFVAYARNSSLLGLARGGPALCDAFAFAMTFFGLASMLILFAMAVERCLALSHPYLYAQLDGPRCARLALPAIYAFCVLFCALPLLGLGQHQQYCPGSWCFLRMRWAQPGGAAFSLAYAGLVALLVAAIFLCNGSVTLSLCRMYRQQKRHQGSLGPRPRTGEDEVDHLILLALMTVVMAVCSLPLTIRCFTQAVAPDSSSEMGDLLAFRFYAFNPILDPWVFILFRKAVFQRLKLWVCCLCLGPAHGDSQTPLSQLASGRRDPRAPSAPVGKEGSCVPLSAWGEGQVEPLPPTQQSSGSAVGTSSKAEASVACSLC
The assay is described as follows: FLIPR Ca2+ signaling antagonist assay, IP receptor stable cell line. The following applies: HEK-293 EBNA stable cells, standard agonist Cicaprost; NA = inactive (no antagonism or Kb≧10,000 nM). How it is done:
as §1, §2, §3, §4

Assay [7] deals with T7, human prostanoid EP1 receptor (Homo sapiens, UniProt P34995).
T7 construct: expressed in transfected cells
T7 sequence (P34995 1-402): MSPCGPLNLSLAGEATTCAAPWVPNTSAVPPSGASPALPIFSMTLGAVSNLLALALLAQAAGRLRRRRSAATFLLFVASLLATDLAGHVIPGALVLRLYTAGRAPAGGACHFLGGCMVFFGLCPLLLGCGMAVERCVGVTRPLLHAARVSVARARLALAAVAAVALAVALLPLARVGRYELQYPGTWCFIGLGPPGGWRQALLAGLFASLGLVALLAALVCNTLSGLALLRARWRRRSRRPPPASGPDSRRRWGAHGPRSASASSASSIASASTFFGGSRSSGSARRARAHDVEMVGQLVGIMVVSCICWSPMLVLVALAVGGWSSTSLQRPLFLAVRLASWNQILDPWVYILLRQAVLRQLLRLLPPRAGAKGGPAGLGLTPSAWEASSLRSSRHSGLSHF
Description: FLIPR Ca2+ signaling antagonist assay, EP1 receptor stable cell line. The following applies: HEK-293 EBNA stable cells, standard agonist PGE2; NA = inactive (no antagonism or Kb≧10,000 nM). How it is done:
as §1, §2, §3, §4

Each structure is given as a SMILES string.

T2 sequence (P43116 whole entry): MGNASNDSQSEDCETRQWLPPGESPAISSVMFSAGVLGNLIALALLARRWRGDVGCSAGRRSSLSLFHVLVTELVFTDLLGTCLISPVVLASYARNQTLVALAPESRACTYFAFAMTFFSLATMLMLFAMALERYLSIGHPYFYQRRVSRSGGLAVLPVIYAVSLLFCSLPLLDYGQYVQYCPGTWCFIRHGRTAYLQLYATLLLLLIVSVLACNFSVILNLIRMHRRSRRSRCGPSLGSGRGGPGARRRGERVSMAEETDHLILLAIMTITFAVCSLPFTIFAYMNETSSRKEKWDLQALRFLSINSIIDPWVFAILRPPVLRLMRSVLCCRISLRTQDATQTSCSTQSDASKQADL
T5 sequence (P35408 whole entry): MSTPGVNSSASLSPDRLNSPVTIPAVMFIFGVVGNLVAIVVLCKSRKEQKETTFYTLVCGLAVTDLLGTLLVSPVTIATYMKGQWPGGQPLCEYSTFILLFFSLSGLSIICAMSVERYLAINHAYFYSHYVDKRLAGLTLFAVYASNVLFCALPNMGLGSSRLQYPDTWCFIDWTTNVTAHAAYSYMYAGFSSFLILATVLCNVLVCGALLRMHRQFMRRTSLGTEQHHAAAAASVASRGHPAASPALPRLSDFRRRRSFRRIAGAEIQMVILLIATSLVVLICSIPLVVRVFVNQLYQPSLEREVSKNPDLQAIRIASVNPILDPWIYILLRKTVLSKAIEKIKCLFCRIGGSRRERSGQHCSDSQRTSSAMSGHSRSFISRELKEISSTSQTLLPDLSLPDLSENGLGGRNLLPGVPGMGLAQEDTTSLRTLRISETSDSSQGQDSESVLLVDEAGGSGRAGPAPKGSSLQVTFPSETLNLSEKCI

With `Cc1cc(CCC(=O)O)nn1Cc1cc(C(F)(F)F)ccc1OCC1CCCC1` [Example 5, 3-[1-(2-Cyclopentylmethoxy-5-trifluoromethylbenzyl)-5-methyl-1H-pyrazol-3-yl]-propionic acid], the Kb in assay [1] was determined as 0.007 µM; in assay [2], 3.4 µM; in assay [3] it was 0.22 µM; in assay [4], 0.063 µM; in assay [5] it was 0.24 µM; in assay [6] it was 6.8 µM. Besides, the Kb in assay [7] was found to be 0.024 µM.

Regarding `Cc1cc(CCC(=O)O)nn1Cc1cc(Cl)ccc1OCC1CCCC1` [Example 4a, 3-[1-(5-Chloro-2-cyclopentylmethoxybenzyl)-5-methyl-1H-pyrazol-3-yl]-propionic acid], the Kb in assay [1] amounted to 0.003 µM; in assay [2] it was 4.5 µM; in assay [3] it was 0.28 µM; in assay [4], 0.11 µM; in assay [5], 0.18 µM; in assay [6], 1.2 µM. For the same molecule, in assay [7], the Kb was 0.08 µM.

These data come from patent US20140121258A1, “COMPOUNDS ACT AT MULTIPLE PROSTAGLANDIN RECEPTORS GIVING A GENERAL ANTI-INFLAMMATORY RESPONSE” (ALLERGAN, INC., priority 2010, published 2014).
